Assay results published in the supplement of paper PMC10307832.

How the values were obtained:
[1] = compound: CN1C=C(C2=CC=CC=C21)/C=C\3/C4=C(C=CC=N4)NC3=O; assay: relative viability (nuclei count vs DMSO), 5 days (fraction); higher = more cells survive
Method in brief: (§1)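 On vehicle-anchored 1536-well plates, lung cancer cell lines held overnight at 37 °C were pinned with five library-drug doses (not always all listed) spaced by √10. With no medium change over 5 days, they were then fixed, permeabilised and Hoechst-stained in one step and imaged at 4×. MetaXpress counted nuclei, and viability is the median across plates of treated-well over vehicle-well nuclei. Acceptance needed control CV below 25% and at least one doubling.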

Trametinib = compound: CC(=O)Nc1cccc(-n2c(=O)n(C3CC3)c(=O)c3c(Nc4ccc(I)cc4F)n(C)c(=O)c(C)c32)c1 [Trametinib]; assay: as above
Method in brief: as §1

Cell Line	relative viability ([1]; 0.02 µM)	relative viability ([1]; 0.06325 µM)	relative viability ([1]; 0.2 µM)	relative viability ([1]; 0.6325 µM)	relative viability ([1]; 2 µM)	relative viability (Trametinib; 0.0025 µM)	relative viability (Trametinib; 0.007906 µM)	relative viability (Trametinib; 0.02 µM, anchor plate)	relative viability (Trametinib; 0.025 µM)	relative viability (Trametinib; 0.07906 µM)	relative viability (Trametinib; 0.25 µM)
201T	0.951	0.979	0.988	0.916	0.971	0.96	0.886	0.721	0.845	0.778	0.761
A549	0.935	0.992	0.767	0.923	0.989	0.864	0.658		0.375	0.278	0.14
A-427	1.06	0.955		1.04	1.03	1.04	0.96	0.77	0.66	0.68	0.35
ABC-1	0.829	0.896	0.709	0.857	0.764	0.963	0.908		0.749	0.547	0.333
BEN	0.863	0.872	0.701	0.755	1.05	0.953	0.96	1.07	0.566	0.658	0.814
CAL-12T	0.894	0.873	0.98	0.972	0.924	0.904	0.723	0.369	0.503	0.51	0.343
COR-L23	0.992	0.994	1.09	1.12	1	0.979	0.995	0.593	0.871	0.849	0.476
COR-L 105	0.803	0.838	0.837	1.05	1.02	0.835	0.786	0.446	0.426	0.386	0.426
Calu-6	1.02	0.968	1.01	0.99	1.05	0.915	0.727		0.472	0.24	0.18
ChaGo-K-1	0.991	1	0.784	1.02	0.996	0.999	0.921	0.917	0.951	0.861	0.764
EBC-1	0.968	0.963	0.905	0.912	0.969	1	0.98		0.648	0.308	0.207
EKVX	0.952	0.812	0.801	0.885	0.983	0.852	0.766	0.364	0.583	0.491	0.395
EMC-BAC-2	1.1	0.92	0.89	0.798	0.673	1.2	1.01	0.859	0.775	0.61	0.635
EPLC-272H	0.921	0.828	0.639	0.645	0.869	0.844	0.644	0.287	0.503	0.327	0.188
H3255	1.04	0.951	0.834	0.978	0.903	0.973	0.879	0.631	0.787	0.742	0.563
HARA	0.935	0.972	0.657	0.96	0.928	0.861	0.947	0.674	0.86	0.503	0.375

Cell Line	relative viability ([1]; 0.02 µM)	relative viability ([1]; 0.06325 µM)	relative viability ([1]; 0.2 µM)	relative viability ([1]; 0.6325 µM)	relative viability ([1]; 2 µM)	relative viability (Trametinib; 0.0025 µM)	relative viability (Trametinib; 0.007906 µM)	relative viability (Trametinib; 0.02 µM, anchor plate)	relative viability (Trametinib; 0.025 µM)	relative viability (Trametinib; 0.07906 µM)	relative viability (Trametinib; 0.25 µM)
HCC-15	0.947	0.952	1.03	1.01	1.01	0.795	0.541	0.389	0.544	0.325	0.28
HCC-44	0.902	0.906	0.87	0.991	0.935	0.966	0.982	1.05	1.02	0.82	0.495
HCC-78	0.81	0.905	0.731	0.803	0.889	0.933	0.735	0.805	0.678	0.573	0.526
HCC-366	1.01	1	0.923	1.1	1.02	0.959	0.969	0.373	0.796	0.669	0.395
HCC-827	0.94	0.978		1.11	1.06	0.999	0.958	0.508	0.92	0.738	0.609
HOP-62	0.992	1.03	0.805	1.02	0.938	1	0.943	0.4	0.778	0.444	0.209
IA-LM	0.978	0.934	0.945	0.811	0.878	0.764	0.464		0.166	0.178	0.107
LC-2-ad	0.988	0.995	0.786	1	0.959	0.948	0.871	0.9	0.875	0.587	0.596
LCLC-97TM1	0.701	0.844	0.717	1.11	0.922	0.884	0.836	0.197	0.398	0.204	0.138
LCLC-103H	0.963	0.933	0.976	0.98	0.959	0.92	0.869	0.672	0.814	0.697	0.685
LK-2		0.697	0.652	0.776	0.975	0.93	0.832	0.761	0.989	0.757	0.388
LOU-NH91	0.902	0.825	0.844	0.856	0.95	0.926	0.923	0.799	0.761	0.8	0.366
LU99A	0.983	0.845	0.909	0.937	0.789	0.953	0.829	0.53	0.551	0.707	0.681
LXF-289	0.979	1	0.976	1	1.03	0.897	0.86	0.679	0.755	0.722	0.664
NCI-H23	0.802	0.849	0.685	1.03	0.986	0.876	0.831	0.417	0.349	0.433	0.264
